Assays:
Adenosine receptor A2a = Adenosine receptor A2a (Homo sapiens, UniProt P29274)
Adenosine receptor A3 = molecular target: T1, Adenosine receptor A3 (Homo sapiens, UniProt P0DMS8)
T1 sequence (P0DMS8 whole entry): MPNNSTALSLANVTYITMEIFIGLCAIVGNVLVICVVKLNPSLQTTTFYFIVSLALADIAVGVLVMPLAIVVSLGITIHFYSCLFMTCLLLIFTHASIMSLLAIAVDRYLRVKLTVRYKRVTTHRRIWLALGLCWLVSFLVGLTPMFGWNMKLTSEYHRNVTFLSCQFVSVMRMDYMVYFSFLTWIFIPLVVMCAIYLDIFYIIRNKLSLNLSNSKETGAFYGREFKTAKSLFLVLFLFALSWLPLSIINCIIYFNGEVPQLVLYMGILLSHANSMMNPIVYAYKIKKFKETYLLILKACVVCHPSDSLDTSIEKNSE

Sequence of Adenosine receptor A2a (P29274 whole entry): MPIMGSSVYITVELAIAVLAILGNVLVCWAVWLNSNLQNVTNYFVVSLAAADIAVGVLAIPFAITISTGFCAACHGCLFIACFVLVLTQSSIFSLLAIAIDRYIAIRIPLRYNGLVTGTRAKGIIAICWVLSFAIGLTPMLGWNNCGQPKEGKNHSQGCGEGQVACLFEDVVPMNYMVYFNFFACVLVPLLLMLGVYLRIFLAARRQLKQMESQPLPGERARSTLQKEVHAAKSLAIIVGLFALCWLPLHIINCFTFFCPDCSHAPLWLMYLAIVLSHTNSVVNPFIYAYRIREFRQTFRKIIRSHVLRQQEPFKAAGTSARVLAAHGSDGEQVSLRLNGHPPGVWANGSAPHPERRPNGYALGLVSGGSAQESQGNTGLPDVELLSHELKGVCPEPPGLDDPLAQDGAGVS

Ki (Adenosine receptor A2a) | Ki (Adenosine receptor A3) | SMILES
471 nM |  | CNC(=O)[C@H]1O[C@@H](n2cnc3c(NCc4ccc(N)c(I)c4)ncnc32)[C@H](O)[C@@H]1O
 | 21.5 nM | CNC(=O)[C@H]1O[C@@H](n2cnc3c(NCc4ccc(N)cc4)ncnc32)[C@H](O)[C@@H]1O [AB-MECA]
794 nM | 43 nM | OC[C@H]1O[C@@H](n2cnc3c(NC4CCCC4)ncnc32)[C@H](O)[C@@H]1O

SMILES | Ki (Adenosine receptor A2a) | Ki (Adenosine receptor A3)
Nc1nc2ccc(Cl)cc2c2nc(-c3ccco3)nn12 |  | 50.8 nM
